IC50 data for 15 molecules are collected here from patent US9663523B2, “BET protein-inhibiting 5-aryltriazoleazepines” (BAYER PHARMA AKTIENGESELLSCHAFT, priority 2012, dated 2017).

The test system of one test is MDA-MB-231 cells. In words: Cell proliferation (alamarBlue), MDA-MB-231. The format is cell-based. Conditions: Homo sapiens, mammary carcinoma cell line, 96 hours incubation. The procedure: (§1) The ability of the compounds according to the invention to inhibit the proliferation of various cell lines was determined.
(§2) Cell viability was determined by means of the alamarBlue® reagent (Invitrogen). The cells were sown at different densities (MOLM-13, LAPC-4, MOLP-8 and MDA-MB-231: 4000 cells/well; B16F10: 400 cells/well) in 100 μl of growth medium on 96-well microtitre plates. After overnight incubation at 37° C., the fluorescence values (CI values) were determined. The plates were then treated with various substance dilutions and incubated at 37° C. for 96 hours (MOLM-13, MDA-MB-231 and B16F10 cells), 120 hours (MOLP-8 cells) or 168 hours (LAPC-4 cells). Subsequently, the fluorescence values were determined (CO values). For the data analysis, the CI values were subtracted from the CO values and the results were compared between cells which had been treated with various dilutions of the substance or only with buffer solution.
(§3) The compounds according to the invention were tested in the cell lines in Table 2, which represent the indications specified by way of example:
(§4) The indications corresponding to the different cell lines can be found in Table 2.
On the technique in general: The colour change of resazurin is a common sign of viable cells or microbes.

The next test deals with MOLM-13 cells. In words: Cell proliferation (alamarBlue), MOLM-13. In kind it is cell-based. Conditions: Homo sapiens, acute myeloid leukaemia cell line, 96 hours incubation. On the procedure: as §1, §2, §3, §4
The subject of the next test is B16F10 cells. Put plainly: Cell proliferation (alamarBlue), B16F10. The format is cell-based. Conditions: Mus musculus, B16-F10; melanoma cell line, 96 hours incubation. The procedure: as §1, §2, §3, §4
Test [1] deals with BRD4(1) (amino acids 44-168) (Homo sapiens (Human), UniProt O60885). Put plainly: BRD4 binding strength, TR-FRET (HTRF) assay of BRD4(1) / acetylated histone H4 peptide interaction. Conditions: inhibition of BRD4(1)/Ac-H4 peptide interaction. The source says: To assess the BRD4 binding strength of the compounds according to the invention, the ability thereof to inhibit the interaction between BRD4 and acetylated histone H4 in a dose-dependent manner was quantified. For this purpose, a time-resolved fluorescence resonance energy transfer (TR-FRET) assay was used, which measures the binding between N-terminally His6-tagged BRD4(1) (amino acids 44-168) and a synthetic acetylated histone H4 (Ac-H4) peptide with sequence […]-biotin. The recombinant BRD4 protein produced in-house according to Filippakopoulos et al., Cell, 2012, 149:214-231 was expressed in E. coli and purified by means of (Ni-NTA) affinity and (Sephadex G-75) size exclusion chromatography. The Ac-H4 peptide can be purchased, for example, from Biosyntan (Berlin, Germany). […] For this purpose, 100-fold concentrated solutions in DMSO were prepared by serial dilutions (1:3.4) of a 2 mM stock solution into a clear, 384-well microtitre plate (Greiner Bio-One, Frickenhausen, Germany). From this, 50 nl were transferred into a black test plate (Greiner Bio-One, Frickenhausen, Germany). […] This was followed by a 10-minute incubation step at 22° C. for the pre-equilibration of putative complexes between BRD4 and the substances. Subsequently, 3 μl of a solution of 1.67 times the concentration (in assay buffer) consisting of Ac-H4 peptide (83.5 nM) and TR-FRET detection reagents [16.7 nM anti-6His-XL665 and 3.34 nM streptavidin cryptate (both from Cisbio Bioassays, Codolet, France), and 668 mM potassium fluoride (KF)] were added. The mixture was then incubated in the dark at 22° C. for one hour and then at 4° C. overnight. The formation of BRD4/Ac-H4 complexes was determined by the measurement of the resonance energy transfer from the streptavidin-Eu cryptate to the anti-6His-XL665 antibody present in the reaction. […] The ratio of the emissions at 665 nm and at 622 nm was taken as an indicator of the amount of BRD4/Ac-H4 complexes formed.

The next test concerns LAPC-4 cells. In words: Cell proliferation (alamarBlue), LAPC-4. The format is cell-based. Conditions: Homo sapiens, LAPC4; prostate carcinoma (androgen receptor-positive) cell line, 168 hours incubation. The procedure:
as §1
as §2, with “values).” for “values). For the data analysis, the CI values were subtracted from the CO values and the results were compared between cells which had been treated with various dilutions of the substance or only with buffer solution.”
as §3, §4

In the next test the test system is MOLP-8 cells. Put plainly: Cell proliferation (alamarBlue), MOLP-8. Conditions: Homo sapiens, multiple myeloma cell line, 120 hours incubation. In kind it is cell-based. The procedure: as §1
as §2, with “values).” for “values). For the data analysis, the CI values were subtracted from the CO values and the results were compared between cells which had been treated with various dilutions of the substance or only with buffer solution.”
as §3, §4

By IC50 is commonly meant the concentration at which inhibition is half-maximal. Higher therefore signals a need for much substance.

As for `Cc1nnc2n1-c1ccccc1C(c1ccc(Cl)cc1)=CC2CC(=O)N1C2CCC1CC(=O)C2` (stereo not drawn) [Example 22], the IC50 in the test with MDA-MB-231 cells came out at 2.9 µM; in the test on MOLM-13 cells it was 1.73 µM; in the test on B16F10 cells, 0.84 µM; in test [1], 0.34 µM; in the test on LAPC-4 cells it was 0.21 µM.

For `Cc1nnc2n1-c1ccccc1C(c1ccc(Cl)cc1)=CC2Cc1nc(C(C)C)no1` (stereo in doubt) [Example 36, (−)-(4R)-6-(4-chlorophenyl)-1-methyl-4-{[3-(propan-2-yl)-1,2,4-oxadiazol-5-yl]methyl}-4H-[1,2,4]triazolo[4,3-a][1]benzazepine], the IC50 in the test with MDA-MB-231 cells stood at 0.41 µM; with MOLM-13 cells it was 0.4 µM; with B16F10 cells, 0.24 µM; in test [1], 0.09 µM; in the test with LAPC-4 cells, 0.16 µM.

Consider `Cc1nnc2n1-c1ccccc1C(c1ccc(Cl)cc1)=CC2CC(=O)N1CC(Oc2ccccc2)C1` (stereo not drawn) [Example 24, 2-[6-(4-chlorophenyl)-1-methyl-4H-[1,2,4]triazolo[4,3-a][1]benzazepin-4-yl]-1-(3-phenoxyazetidin-1-yl)ethanone], for which the IC50 with MDA-MB-231 cells worked out at 2.53 µM; with MOLM-13 cells it was 2.94 µM; with B16F10 cells, 1.05 µM; in test [1], 0.22 µM; with LAPC-4 cells, 0.55 µM.

Regarding `Cc1nnc2n1-c1ccccc1C(c1ccc(Cl)cc1)=CC2CC(=O)N1CC2CCC(C1)O2` (stereo not drawn) [Example 32, 2-[6-(4-chlorophenyl)-1-methyl-4H-[1,2,4]triazolo[4,3-a][1]benzazepin-4-yl]-1-(8-oxa-3-azabicyclo[3.2.1]oct-3-yl)ethanone], the 50% inhibitory concentration (IC50) with MDA-MB-231 cells is 2.04 µM; in the test on MOLM-13 cells, 1.81 µM; in the test on B16F10 cells, 0.8 µM; in test [1], 0.39 µM; in the test on LAPC-4 cells, 0.25 µM.

Regarding `Cc1nnc2n1-c1ccccc1C(c1ccc(Cl)cc1)=CC2CC(=O)Nc1ccc2c(c1)CC(=O)N2` (stereo in doubt) [Example 21, (−)-2-[(4R)-6-(4-chlorophenyl)-1-methyl-4H-[1,2,4]triazolo[4,3-a][1]benzazepin-4-yl]-N-(2-oxo-2,3-dihydro-1H-indol-5-yl)acetamide], the IC50 in the test with MDA-MB-231 cells is 0.48 µM; in the test on MOLM-13 cells, 0.17 µM; in the test with B16F10 cells it was 0.19 µM; in test [1], 0.08 µM; in the test on LAPC-4 cells, 0.08 µM.

As for `Cc1nnc2n1-c1ccccc1C(c1ccc(Cl)cc1)=CC2CC(=O)N1CC(F)C1` (stereo not drawn) [Example 16, 2-[6-(4-chlorophenyl)-1-methyl-4H-[1,2,4]triazolo[4,3-a][1]benzazepin-4-yl]-1-(3-fluoroazetidin-1-yl)ethanone], the half-maximal inhibitory concentration (IC50) with MDA-MB-231 cells amounted to 1.04 µM; in the test with MOLM-13 cells it was 0.53 µM; in the test with B16F10 cells it was 0.46 µM; in test [1] it was 0.22 µM; in the test with LAPC-4 cells, 0.26 µM.

With `Cc1nnc2n1-c1ccccc1C(c1ccc(Cl)cc1)=CC2Cc1nc(C2CC2)no1` (stereo in doubt) [Example 37, (−)-(4R)-6-(4-Chlorophenyl)-4-[(3-cyclopropyl-1,2,4-oxadiazol-5-yl)methyl]-1-methyl-4H-[1,2,4]triazolo[4,3-a][1]benzazepine], the 50% inhibitory concentration (IC50) in the test on MDA-MB-231 cells stood at 0.38 µM; with MOLM-13 cells it was 0.33 µM; in the test with B16F10 cells, 0.22 µM; in test [1], 0.05 µM; in the test with LAPC-4 cells it was 0.31 µM.

As to `Cc1nnc2n1-c1ccccc1C(c1ccc(Cl)cc1)=CC2CC(=O)N1CCOCC1` (stereo in doubt) [Example 15, (−)-2-[(4R)-6-(4-chlorophenyl)-1-methyl-4H-[1,2,4]triazolo[4,3-a][1]benzazepin-4-yl]-1-(morpholin-4-yl)ethanone], the half-inhibitory concentration (IC50) in the test with MDA-MB-231 cells amounted to 0.35 µM; in the test with MOLM-13 cells, 0.23 µM; with B16F10 cells, 0.13 µM; in test [1], 0.04 µM; in the test with LAPC-4 cells, 0.06 µM.

For the molecule `Cc1nnc2n1-c1ccccc1C(c1ccc(Cl)cc1)=CC2CC(=O)N1CC(F)C1` (stereo in doubt) [Example 17, (−)-2-[(4R)-6-(4-chlorophenyl)-1-methyl-4H-[1,2,4]triazolo[4,3-a][1]benzazepin-4-yl]-1-(3-fluoroazetidin-1-yl)ethanone], the half-inhibitory concentration (IC50) with MDA-MB-231 cells was determined as 0.57 µM; in the test with MOLM-13 cells it was 0.34 µM; with B16F10 cells, 0.28 µM; in test [1], 0.09 µM; in the test on LAPC-4 cells it was 0.14 µM.

For `Cc1nnc2n1-c1ccccc1C(c1ccc(Cl)cc1)=C[C@H]2CC(=O)N1CCS(=O)(=O)C1` [Example 31, (−)-2-[(4R)-6-(4-chlorophenyl)-1-methyl-4H-[1,2,4]triazolo[4,3-a][1]benzazepin-4-yl]-1-(1,1-dioxido-1,3-thiazolidin-3-yl)ethanone], the half-inhibitory concentration (IC50) with MDA-MB-231 cells turned out to be 0.56 µM; with MOLM-13 cells, 0.19 µM; with B16F10 cells, 0.22 µM; in test [1] it was 0.18 µM; with LAPC-4 cells, 0.08 µM.

As for `CCNC(=O)CC1C=C(c2ccc(Cl)cc2)c2ccccc2-n2c(C)nnc21` (stereo not drawn) [Example 12, 2-[6-(4-chlorophenyl)-1-methyl-4H-[1,2,4]triazolo[4,3-a][1]benzazepin-4-yl]-N-ethylacetamide], the IC50 with MDA-MB-231 cells worked out at 0.48 µM; with MOLM-13 cells, 0.27 µM; in the test with B16F10 cells it was 0.23 µM; in test [1], 0.13 µM; in the test with LAPC-4 cells, 0.08 µM.

With `CCNC(=O)CC1C=C(c2ccc(Cl)cc2)c2ccccc2-n2c(C)nnc21` (stereo in doubt) [Example 13, (−)-2-[(4R)-6-(4-chlorophenyl)-1-methyl-4H-[1,2,4]triazolo[4,3-a][1]benzazepin-4-yl]-N-ethylacetamide], the IC50 in the test on MDA-MB-231 cells is 0.32 µM; in the test on MOLM-13 cells, 0.31 µM; in the test with B16F10 cells, 0.15 µM; in test [1], 0.03 µM; in the test on LAPC-4 cells, 0.06 µM.

`Cc1nnc2n1-c1ccccc1C(c1ccc(Cl)cc1)=C[C@H]2CC(=O)N1CCC(=O)C1` [Example 27, (−)-1-{[(4R)-6-(4-chlorophenyl)-1-methyl-4H-[1,2,4]triazolo[4,3-a][1]benzazepin-4-yl]acetyl}pyrrolidin-3-one]: the concentration for half-maximal inhibition (IC50) in the test on MDA-MB-231 cells turned out to be 0.71 µM; in the test on MOLM-13 cells it was 0.25 µM; with B16F10 cells, 0.34 µM; in test [1], 0.11 µM; in the test with LAPC-4 cells it was 0.18 µM.

For the molecule `Cc1nnc2n1-c1ccccc1C(c1ccc(Cl)cc1)=CC2CC(=O)Nc1ccc2c(c1)CC(=O)N2` (stereo not drawn) [Example 20, 2-[6-(4-chlorophenyl)-1-methyl-4H-[1,2,4]triazolo[4,3-a][1]benzazepin-4-yl]-N-(2-oxo-2,3-dihydro-1H-indol-5-yl)acetamide], the IC50 stood at 0.98 µM in the test on MDA-MB-231 cells; 0.54 µM in the test on MOLM-13 cells; 0.35 µM in the test on B16F10 cells; 0.24 µM in test [1]; 0.14 µM in the test on LAPC-4 cells.

As for `Cc1nnc2n1-c1ccccc1C(c1ccc(Cl)cc1)=C[C@H]2CC(=O)N1CC2(CCS2(=O)=O)C1` [Example 19, (−)-2-[(4R)-6-(4-chlorophenyl)-1-methyl-4H-[1,2,4]triazolo[4,3-a][1]benzazepin-4-yl]-1-(1,1-dioxido-1-thia-6-azaspiro[3.3]hept-6-yl)ethanone], the IC50 amounted to 0.19 µM in the test on MOLP-8 cells; 0.38 µM in the test on MDA-MB-231 cells; 0.15 µM with MOLM-13 cells; 0.16 µM with B16F10 cells; 0.17 µM in the test on LAPC-4 cells.
